Source: patent US20080064027A1, “TEL/Etv6-mediated inhibition of cell proliferation” (priority 2002, published 2008)
Several values for one entry are separate records, joined by “and”; a condition that tells them apart may be missing. Identical values can stand only once. Like-named read-outs stand apart in the source and are kept apart here.

Test system: Stat3-ER expressing A375 cells
Type: cell-based
Experimental: In order to understand Stat3's ability to affect cell proliferation and cell death, we have examined the profile of genes expressed upon Stat3 activation in A375 cells using oligonucleotide microarrays.
Briefly, microarray analysis was performed using HG U95A GeneChips™ (Affymetrix, Santa Clara, USA) essentially according to the manufacturer's instructions. […] RNA from three independent experiments was pooled and biotin-labeled cRNA probes were generated from each sample starting from 10 μg of total cellular RNA. The resulting biotinylated cRNAs were hybridized to the Affymetrix U95A oligonucleotide array containing more than 12,000 sequences and signals detected. Chip analysis was performed using the Affymetrix Microarray Suite v5 (target intensity 500 used for chip scaling) and GeneSpring 4.2.1 (Silicon Genetics). Changes in gene expression were assessed by looking for concordant changes between replicates using a signed Wilcoxon rank test (as recommended by Affymetrix).

oncostatin M [OSM]
1.7: expression change (fold): Kynureninase (L-kynurenine hydrolase) (Avge of clones, 3rd listing) | expression change (fold): Intercellular adhesion molecule 1 precursor (Clone1) | expression change (fold): Niemann-Pick disease, type C1 (Clone1) | expression change (fold): KIAA0161 gene product (Clone2) | expression change (fold): Kynureninase (L-kynurenine hydrolase) (Clone2) | expression change (fold): Insulin-like growth factor binding protein 3 (Clone2, 2nd listing) | expression change (fold): Prostatic acid phosphatase precursor (Clone2, 2nd listing)
3.7: expression change (fold): Stanniocalcin 1 (Avge of clones) | expression change (fold): v-fos FBJ murine osteosarcoma viral gene homologue (Avge of clones) | expression change (fold): Regulator of G protein signalling 16 (Clone1)
28.8: expression change (fold): Serine (or cysteine) protease inhibitor, clade B (ovalbumin), member 3 (Clone1)
3.0: expression change (fold): KIAA0500 protein (Avge of clones) | expression change (fold): MHC class II transactivator (Avge of clones) | expression change (fold): Regenerating islet-derived 1 alpha (pancreatic stone protein, pancreatic thread protein) (Avge of clones) | expression change (fold): v-maf musculoaponeurotic fibrosarcoma oncogene homologue (avian) (Avge of clones) | expression change (fold): Cytokine receptor-like factor 1 (Clone1) | expression change (fold): Regenerating islet-derived 1 alpha (pancreatic stone protein, pancreatic thread protein) (Clone1) | expression change (fold): Regenerating islet-derived 1 alpha (pancreatic stone protein, pancreatic thread protein) (Clone2)
2.0: expression change (fold): Fibronectin (Avge of clones) | expression change (fold): Oncostatin M receptor (Avge of clones) | expression change (fold): Insulin-like growth factor binding protein 3 (Avge of clones, 2nd listing) | expression change (fold): Oncostatin M receptor (Clone2, 2nd listing)
4.6: expression change (fold): Secreted phosphoprotein 1 (osteopontin, bone sialoprotein 1, early T-lymphocyte activation 1) (Avge of clones, 2nd listing) | expression change (fold): Stanniocalcin 1 (Clone2) | expression change (fold): v-fos FBJ murine osteosarcoma viral gene homologue (Clone2)
4.7: expression change (fold): Brain-derived neurotrophic factor (Clone2)
4.1: expression change (fold): Aquaporin 3 (Avge of clones)
1.9: expression change (fold): Cytokine receptor-like factor 1 (Avge of clones) | expression change (fold): Intercellular adhesion molecule 1 precursor (Avge of clones) | expression change (fold): Oncostatin M receptor (Avge of clones, 2nd listing) | expression change (fold): Oncostatin M receptor (Clone1) | expression change (fold): Solute carrier family 2 (facilitated glucose transporter), member 3 (Clone1) | expression change (fold): Oncostatin M receptor (Clone1, 2nd listing) | expression change (fold): Kynureninase (L-kynurenine hydrolase) (Clone1, 3rd listing) | expression change (fold): Fibronectin 1, isoform 1 preproprotein (Clone2) | expression change (fold): Nicotinamide N-methyltransferase (Clone2) | expression change (fold): Ras-induced senescence 1 (Clone2)
5.2: expression change (fold): Death-associated protein kinase 1 (Avge of clones) | expression change (fold): Osteoprotegrin (Clone1)
3.9: expression change (fold): Ets variant gene 6 (Avge of clones) | expression change (fold): CCAAT/enhancer binding protein (C/EBP), delta (Clone1) | expression change (fold): Ets variant gene 6 (Clone1)
10.2: expression change (fold): Prostatic acid phosphatase precursor (Clone2)
1.1: expression change (fold): v-jun avian sarcoma virus 17 oncogene homologue (Clone2, 2nd listing)
1.2: expression change (fold): Small inducible cytokine A2 (monocyte chemotactic protein 1) (Avge of clones) | expression change (fold): Tyrosine phosphatase/TIGR = HG620-HT620 (Avge of clones) | expression change (fold): v-jun avian sarcoma virus 17 oncogene homologue (Avge of clones) | expression change (fold): Fibronectin 1, isoform 1 preproprotein (Clone1) | expression change (fold): Interleukin 8 (Clone1, 2nd listing)
2.8: expression change (fold): Alpha-1-antichymotrypsin precursor (Avge of clones) | expression change (fold): Cathepsin L (Avge of clones) | expression change (fold): Nicotinamide N-methyltransferase (Clone1) | expression change (fold): Stanniocalcin 1 (Clone1)
3.1: expression change (fold): Alpha-1-antichymotrypsin precursor (Clone1) | expression change (fold): Absent in melanoma 2 (Clone2) | expression change (fold): Fibronectin (Clone2)
1.8: expression change (fold): Ras-induced senescence 1 (Avge of clones) | expression change (fold): Ras-induced senescence 1 (Clone1) | expression change (fold): Kynureninase (L-kynurenine hydrolase) (Clone1, 2nd listing) | expression change (fold): v-jun avian sarcoma virus 17 oncogene homologue (Clone1, 2nd listing)
1.3: expression change (fold): Prostatic acid phosphatase precursor (Avge of clones, 2nd listing) | expression change (fold): Ephrin A1 precursor (Clone1) | expression change (fold): Kynureninase (L-kynurenine hydrolase) (Clone2, 2nd listing)
0.9: expression change (fold): Interleukin 8 (Avge of clones, 2nd listing) | expression change (fold): Fibronectin (Clone1) | expression change (fold): Small inducible cytokine A2 (monocyte chemotactic protein 1) (Clone1) | expression change (fold): Tyrosine phosphatase/TIGR = HG620-HT620 (Clone1) | expression change (fold): Cytokine receptor-like factor 1 (Clone2)
6.9: expression change (fold): Death-associated protein kinase 1 (Clone2)
1.0: expression change (fold): Prostatic acid phosphatase precursor (Clone1, 2nd listing) | expression change (fold): Killer cell lectin-like receptor subfamily C, member 2 (Clone2) | expression change (fold): v-jun avian sarcoma virus 17 oncogene homologue (Clone2)
0.7: expression change (fold): Osteoprotegrin (Clone2) | expression change (fold): Interleukin 8 (Clone2, 2nd listing)
2.7: expression change (fold): CCAAT/enhancer binding protein (C/EBP), delta (Avge of clones) | expression change (fold): Killer cell lectin-like receptor subfamily C, member 2 (Avge of clones) | expression change (fold): Major vault protein (Avge of clones) | expression change (fold): Absent in melanoma 2 (Clone1) | expression change (fold): Jun B proto-oncogene (Clone1)
4.3: expression change (fold): Killer cell lectin-like receptor subfamily C, member 2 (Clone1)
1.4: expression change (fold): Interferon induced transmembrane protein 1 (9-27) (Avge of clones) | expression change (fold): v-jun avian sarcoma virus 17 oncogene homologue (Clone1) | expression change (fold): Kynureninase (L-kynurenine hydrolase) (Clone2, 3rd listing)
4.5: expression change (fold): Aquaporin 3 (Clone1) | expression change (fold): KIAA0303 protein (Clone1) | expression change (fold): Prostatic acid phosphatase precursor (Clone1)
9.2: expression change (fold): Aquaporin 3 (Clone1, 2nd listing)
4.8: expression change (fold): Brain-derived neurotrophic factor (Avge of clones) | expression change (fold): Brain-derived neurotrophic factor (Clone1)
2.5: expression change (fold): Glycine dehydrogenase (decarboxylating, glycine decdarboxylase, glycine cleavage system protein P) (Avge of clones) | expression change (fold): Jun B proto-oncogene (Avge of clones) | expression change (fold): MHC, class II, DQ beta 1 (Avge of clones) | expression change (fold): Glycine dehydrogenase (decarboxylating, glycine decdarboxylase, glycine cleavage system protein P) (Clone1) | expression change (fold): I factor (complement) (Clone1) | expression change (fold): MHC, class II, DQ alpha 1 precursor (Clone1) | expression change (fold): v-maf musculoaponeurotic fibrosarcoma oncogene homologue (avian) (Clone1) | expression change (fold): Glycine dehydrogenase (decarboxylating, glycine decdarboxylase, glycine cleavage system protein P) (Clone2) | expression change (fold): Major vault protein (Clone2)
7.4: expression change (fold): Prostatic acid phosphatase precursor (Avge of clones)
2.3: expression change (fold): I factor (complement) (Avge of clones) | expression change (fold): Solute carrier family 2 (facilitated glucose transporter), member 3 (Avge of clones) | expression change (fold): Cathepsin L (Clone1) | expression change (fold): KIAA0500 protein (Clone1) | expression change (fold): MHC, class II, DQ alpha 1 precursor (Clone2) | expression change (fold): Fibronectin 1, isoform 1 preproprotein (Clone2, 2nd listing)
1.5 and 1.6: expression change (fold): H. sapiens mRNA; cDNA DZFZp586N012
3.6: expression change (fold): Killer cell lectin-like receptor subfamily C, member 3 isoform NKG2-E (Avge of clones)
3.5: expression change (fold): KIAA0303 protein (Avge of clones) | expression change (fold): Death-associated protein kinase 1 (Clone1) | expression change (fold): Secreted phosphoprotein 1 (osteopontin, bone sialoprotein 1, early T-lymphocyte activation 1) (Clone1, 2nd listing) | expression change (fold): v-maf musculoaponeurotic fibrosarcoma oncogene homologue (avian) (Clone2)
10.7: expression change (fold): STAT induced STAT inhibitor 3 (Avge of clones)
3.4: expression change (fold): MHC class II transactivator (Clone1) | expression change (fold): Cathepsin L (Clone2)
27.8: expression change (fold): Serine (or cysteine) protease inhibitor, clade B (ovalbumin), member 3 (Avge of clones)
0.6: expression change (fold): Fibronectin 1, isoform 1 preproprotein (Clone1, 2nd listing) | expression change (fold): Interferon induced transmembrane protein 1 (9-27) (Clone2) | expression change (fold): Interleukin 8 (Clone2)
5.7: expression change (fold): Secreted phosphoprotein 1 (osteopontin, bone sialoprotein 1, early T-lymphocyte activation 1) (Clone2, 2nd listing)
6.7: expression change (fold): Killer cell lectin-like receptor subfamily C, member 3 isoform NKG2-E (Clone1) | expression change (fold): Aquaporin 3 (Clone2, 2nd listing)
2.9: expression change (fold): Absent in melanoma 2 (Avge of clones) | expression change (fold): Osteoprotegrin (Avge of clones) | expression change (fold): Regulator of G protein signalling 16 (Avge of clones) | expression change (fold): Major vault protein (Clone1) | expression change (fold): v-fos FBJ murine osteosarcoma viral gene homologue (Clone1) | expression change (fold): Ephrin A1 precursor (Clone2)
2.4: expression change (fold): Insulin-like growth factor binding protein 3 (Avge of clones) | expression change (fold): MHC, class II, DQ alpha 1 precursor (Avge of clones) | expression change (fold): Nicotinamide N-methyltransferase (Avge of clones) | expression change (fold): MHC, class II, DQ beta 1 (Clone1) | expression change (fold): Insulin-like growth factor binding protein 3 (Clone1, 2nd listing) | expression change (fold): Alpha-1-antichymotrypsin precursor (Clone2) | expression change (fold): KIAA0303 protein (Clone2) | expression change (fold): Niemann-Pick disease, type C1 (Clone2)
2.2: expression change (fold): Kynureninase (L-kynurenine hydrolase) (Avge of clones) | expression change (fold): Interferon induced transmembrane protein 1 (9-27) (Clone1) | expression change (fold): I factor (complement) (Clone2) | expression change (fold): Jun B proto-oncogene (Clone2)
26.7: expression change (fold): Serine (or cysteine) protease inhibitor, clade B (ovalbumin), member 3 (Clone2)
2.1: expression change (fold): Ephrin A1 precursor (Avge of clones) | expression change (fold): Niemann-Pick disease, type C1 (Avge of clones) | expression change (fold): Insulin-like growth factor binding protein 3 (Clone2) | expression change (fold): Intercellular adhesion molecule 1 precursor (Clone2) | expression change (fold): Oncostatin M receptor (Clone2) | expression change (fold): Regulator of G protein signalling 16 (Clone2)
1.6: expression change (fold): Fibronectin 1, isoform 1 preproprotein (Avge of clones) | expression change (fold): KIAA0161 gene product (Avge of clones) | expression change (fold): CCAAT/enhancer binding protein (C/EBP), delta (Clone2) | expression change (fold): Tyrosine phosphatase/TIGR = HG620-HT620 (Clone2)
0.4: expression change (fold): Interleukin 8 (Clone1) | expression change (fold): Killer cell lectin-like receptor subfamily C, member 3 isoform NKG2-E (Clone2)
7.5: expression change (fold): Secreted phosphoprotein 1 (osteopontin, bone sialoprotein 1, early T-lymphocyte activation 1) (Avge of clones)
8.0: expression change (fold): Aquaporin 3 (Avge of clones, 2nd listing)
3.8: expression change (fold): Secreted phosphoprotein 1 (osteopontin, bone sialoprotein 1, early T-lymphocyte activation 1) (Clone1) | expression change (fold): Aquaporin 3 (Clone2) | expression change (fold): KIAA0500 protein (Clone2)
11.6: expression change (fold): STAT induced STAT inhibitor 3 (Clone1)
1.5: expression change (fold): Fibronectin 1, isoform 1 preproprotein (Avge of clones, 2nd listing) | expression change (fold): Kynureninase (L-kynurenine hydrolase) (Avge of clones, 2nd listing) | expression change (fold): v-jun avian sarcoma virus 17 oncogene homologue (Avge of clones, 2nd listing) | expression change (fold): KIAA0161 gene product (Clone1) | expression change (fold): Small inducible cytokine A2 (monocyte chemotactic protein 1) (Clone2)
9.7: expression change (fold): STAT induced STAT inhibitor 3 (Clone2)
4.0: expression change (fold): Ets variant gene 6 (Clone2)
0.5: expression change (fold): Interleukin 8 (Avge of clones)
2.6: expression change (fold): Insulin-like growth factor binding protein 3 (Clone1) | expression change (fold): Kynureninase (L-kynurenine hydrolase) (Clone1) | expression change (fold): MHC class II transactivator (Clone2) | expression change (fold): MHC, class II, DQ beta 1 (Clone2) | expression change (fold): Solute carrier family 2 (facilitated glucose transporter), member 3 (Clone2)
11.3: expression change (fold): Secreted phosphoprotein 1 (osteopontin, bone sialoprotein 1, early T-lymphocyte activation 1) (Clone2)
